pIC50: −log10 of the molar value. “And” between values parts separate entries of the source, which are not always exact repeats. Equal entries are not always repeated. Where two headings read alike, the source gives them in different places.
Experiments:
[1] = tested on: human nasopharyngeal epidermoid carcinoma cell line (KB); assay: In vitro Neutral Red cytotoxicity assay, KB; type: cell-based; conditions: 72 h; for IC50 / pIC50: read-out: Cytotoxicity (IC50) KB; for pIC50: value in parentheses
Description: (§1) No effect due to the DMSO was observed. Doxorubicin was used as the positive control. The well containing untreated cells was the negative control.
(§2) Cytotoxicity of each sample is expressed as IC50 value.

[2] = tested on: human hormone-dependent breast carcinoma cell line (MCF7); assay: In vitro Neutral Red cytotoxicity assay, MCF7; type: cell-based; conditions: for IC50 / pIC50: read-out: Cytotoxicity (IC50) MCF7; for pIC50: value in parentheses
Description: The well containing untreated cells was the negative control.
as §2

[3] = tested on: human cervical carcinoma cell line (CasKi); assay: In vitro Neutral Red cytotoxicity assay, CasKi; type: cell-based; conditions: 72 h; for IC50 / pIC50: read-out: Cytotoxicity (IC50) CasKi; for pIC50: value in parentheses
Description: as §1, §2

[4] = tested on: human colon carcinoma cell line (HCT 116); assay: In vitro Neutral Red cytotoxicity assay, HCT 116; type: cell-based; conditions: for IC50 / pIC50: read-out: Cytotoxicity (IC50) HCT 116; for pIC50: value in parentheses
Description: as §1, §2

[5] = tested on: human lung carcinoma cell line (A549); assay: In vitro Neutral Red cytotoxicity assay, A549; conditions: for IC50: Homo sapiens, A549, 72 h
Experimental: The in vitro cytotoxicity assay was carried out using a Neutral Red cytotoxicity assay as previously described by Borenfreund and Puerner with some modifications; this test determines the accumulation of the Neutral Red dye in the lysosomes of viable and uninjured cells.
Human nasopharyngeal epidermoid carcinoma cell line (KB), human cervical carcinoma cell line (CasKi), human colon carcinoma cell line (HCT 116), human hormone-dependent breast carcinoma cell line (MCF7), human lung carcinoma cell line (A549) and non-cancer human fibroblast cell line (MRC-5) were purchased from the American Tissue Culture Collection (ATCC, USA). KB cells were maintained in Medium 199 (Sigma), CasKi, A549 and MCF7 cells in RPMI 1640 medium (Sigma), HCT 116 in McCOY’S 5A Medium (Sigma) and MRC-5 cells in EMEM (Eagle Minimum Essential Medium) (Sigma), supplemented with 10% foetal bovine serum (FBS, PAA Lab, Austria), 100 µg/mL penicillin or streptomycin (PAA Lab, Austria) and 50 µg/mL of fungizone (PAA Lab, Austria). The cells were cultured in a 5% CO2 incubator (Shel Lab water-jacketed) kept at 37°C in a humidified atmosphere.
The Neutral Red cytotoxicity assay is based on the initial protocol described by Borenfreund and Puerner with some modifications. Briefly, the cells (1x10^4/well) were seeded in 96-well microtiter plates (Nunc) and allowed to grow for 24 hours before treatment. After 24 hours of incubation, the cells were treated with six different concentrations (0.1-100 µg/mL) of test compounds, in three replicates. The plates were further incubated for 72 h at 37°C in a 5% CO2 incubator. A stock solution was initially obtained by dissolving the test compounds in DMSO. Further dilution to different tested concentrations were then carried out ensuring that the final concentration of DMSO in the test and control wells was not in excess of 1% (v/v). […] The well containing untreated cells was the negative control. At the end of the incubation period, the media were replaced with medium containing 50 µg/mL of Neutral Red. The plates were incubated for another 3 hours to allow for uptake of the vital dye into the lysosomes of viable and […] cells. After the incubation period, the media were removed and cells were washed with the neutral red washing solution. The dye was eluted from the cells by adding 200 µL of Neutral Red resorb solution and incubated for 30 minutes at room temperature with rapid agitation on a microtiter plate shaker. Dye absorbance was measured at 540 nm using a spectrophotometer ELISA plate reader. The average data from triplicates were expressed in terms of killing percentage relative to negative control. The percentage of inhibition (%) of each of the test samples was calculated according to the following formula: [drawing 1] where OD control: Optical Density of negative control; OD sample: Optical Density of sample
Cytotoxicity of each sample is expressed as IC50 value. The IC50 value is the concentration of test compounds that cause 50 % inhibition or cell death, averaged from the three experiments, and was obtained by plotting the percentage inhibition versus concentration of test compounds. […] However, we recognized that whether an IC50 value corresponds to a significant or non-significant cytotoxicity depends on the sensitivity of the cell line.

[6] = In vitro Neutral Red cytotoxicity assay, MRC-5; type: cell-based, human; conditions: human
Description: as §1, §2

[7] = tested on: non-cancer human fibroblast cell line (MRC-5); assay: In vitro Neutral Red cytotoxicity assay, MRC-5; type: cell-based; conditions: MRC-5 cells, 72 h
Description: as §1, §2

[8] = Homo sapiens, KB cells, Neutral Red
[9] = Homo sapiens, MCF7 cells, 72 h, Neutral Red
[10] = Homo sapiens, Ca-Ski, CasKi cells, Neutral Red
[11] = Homo sapiens, HCT 116 cells, 72 h, Neutral Red
[12] = read-out: Cytotoxicity (IC50) A549
[13] = MRC-5 cells (non-cancer fibroblast cell line)
[14] = MRC-5 cells (non-cancer fibroblast cell line), value in parentheses
[15] = HCT 116 cells, 72 h, Neutral Red

Compound | IC50 [1, 8] [µg/mL] | pIC50 [1, 8] | IC50 [2, 9] [µg/mL] | pIC50 [2, 9] | IC50 [3, 10] [µg/mL] | pIC50 [3, 10] | IC50 [4, 11] [µg/mL] | pIC50 [4, 11] | IC50 [5, 12] | IC50 at 72 h [6, 13] [µg/mL] | IC50 at 72 h [6, 14] [µM] | also measured
CC1(C)CCCC2(C)OC(=O)C=C12 (stereo not shown) [Dihydroactinidiolide (1), Dihydroactinidiolide] | 6.7 | 4.43 | 30 | 3.78 | 40 | 3.65 | 5 | 4.56 | 97 µg/mL and 539 µM | 91.3 | 507 | 
phytol [Phytol (7)] |  |  |  |  |  |  |  |  |  |  |  | Cytotoxicity (IC50) KB ([1]; KB cells, Neutral Red): 7.1 µg/mL; pIC50 ([1]; KB cells, Neutral Red): 4.62; Cytotoxicity (IC50) MCF7 ([2]; MCF7 cells, 72 h, Neutral Red): 34 µg/mL; pIC50 ([2]; MCF7 cells, 72 h, Neutral Red): 3.94; Cytotoxicity (IC50) CasKi ([3]; CasKi cells, Neutral Red): 18 µg/mL; pIC50 ([3]; CasKi cells, Neutral Red): 4.22; Cytotoxicity (IC50) HCT 116 [4, 15]: 100 µg/mL; pIC50 [4, 15]: 3.47; Cytotoxicity (IC50) A549 ([5]; A549 cells, 72 h, Neutral Red): 31 µg/mL; pIC50 ([5]; read-out: Cytotoxicity (IC50) A549, A549 cells, 72 h, Neutral Red, value in parentheses): 3.98; Cytotoxicity (IC50) MRC-5 [7]: 74.3 µg/mL; pIC50 ([7]; value in parentheses): 3.60
CC(C)(C)c1ccc(O)c(C(C)(C)C)c1 [2,4-di tert butylphenol (5), 2,4-di-tert-butylphenol] | 0.81 | 5.41 | 5.75 | 4.55 | 4.5 | 4.66 | 29 | 3.85 | 6 µg/mL and 29.1 µM | 20 | 97.1 | 
Cc1c(C)c2c(c(C)c1O)CC[C@@](C)(CCC[C@H](C)CCC[C@H](C)CCCC(C)C)O2 [α-tocopherol (6), α-tocopherol] | 8 | 4.73 | 7.5 | 4.76 | 6 | 4.86 | 31 | 4.14 | 6 µg/mL and 13.9 µM | 30.5 | 70.9 | 
CC[C@H](CC[C@@H](C)[C@H]1CC[C@H]2[C@@H]3CC=C4C[C@@H](O)CC[C@]4(C)[C@H]3CC[C@]12C)C(C)C [β -sitosterol (4), β-sitosterol] |  |  |  |  |  |  |  |  | 78 µg/mL and 188 µM |  |  | IC50 ([1]; Homo sapiens, KB): > 100 µg/mL and > 242 µM; IC50 ([2]; Homo sapiens, MCF7, 72 h): 72 µg/mL and 174 µM; IC50 ([3]; Homo sapiens, Ca-Ski): 62 µg/mL and 150 µM; IC50 ([4]; Homo sapiens, HCT-116, 72 h): > 100 µg/mL and > 242 µM; IC50 at 72 h ([6]; MRC-5 cells): > 100 µg/mL; IC50 at 72 h ([6]; MRC-5 cells, value in parentheses): > 242 µM
COc1cccc2c1C(=O)c1c(O)c3c(c(O)c1C2=O)C[C@@](O)(C(=O)CO)C[C@@H]3O[C@H]1C[C@H](N)[C@H](O)[C@H](C)O1 [Doxorubicin, reference compound] | 0.013 | 7.64 |  |  | 0.006 | 7.96 | 0.36 | 6.18 | 0.22 µg/mL and 401 nM | 0.55 | 1.01 | 

Reference: article PMC6254274, “Cytotoxic Components of Pereskia bleo (Kunth) DC. (Cactaceae) Leaves” (Molecules, 2009)
